According to publication PMC11855086, “Synthesis, Antimicrobial Activity, and Tyrosinase Inhibition by Multifunctional 3,4-Dihydroxy-Phenyl Peptidomimetics” (International Journal of Molecular Sciences, 2025):
In brackets after ≈: the same amount, converted by molar mass.

Key:
Type in all cases: cell-based
E. coli K12 (ATCC 25404) = assay: MIC and MBC, microtiter plate technique; details: Escherichia coli; for MBC: ATCC25404; for MIC: ATCC25404, 24 h
E. coli R2 (ATCC 39544) = assay: MIC and MBC, microtiter plate technique; details: Escherichia coli; for MBC: ATCC39544; for MIC: ATCC39544, 24 h
E. coli R3 (ATCC 11775) = assay: MIC and MBC, microtiter plate technique; details: Escherichia coli; for MIC: ATCC11775, 24 h, resazurin; for MBC: ATCC11775, TTC
E. coli R4 (ATCC 39543) = assay: MIC and MBC, microtiter plate technique; details: Escherichia coli; for MBC: ATCC39543; for MIC: ATCC39543, 24 h
[1] = test system: A. baumannii (ATCC 17978); assay: MIC and MBC, microtiter plate technique; details: ATCC17978, Acinetobacter baumannii; for MIC: 24 h, resazurin; for MBC: TTC
[2] = test system: P. aeruginosa (ATCC 15442); assay: MIC and MBC, microtiter plate technique; details: ATCC15442, Pseudomonas aeruginosa; for MIC: 24 h, resazurin; for MBC: TTC
E. cloacae (ATCC 49141) = assay: MIC and MBC, microtiter plate technique; details: ATCC49141, Enterobacter cloacae; for MIC: 24 h, resazurin; for MBC: TTC
S. aureus (ATCC 23235) = assay: microbe, parasite or virus in culture; details: Staphylococcus aureus; for MBC: ATCC23235; for MIC: ATCC23235, 24 h

Compound	MBC (E. coli K12 (ATCC 25404)) [µM]	MIC (E. coli K12 (ATCC 25404)) [µM]	MBC (E. coli R2 (ATCC 39544)) [µM]	MIC (E. coli R2 (ATCC 39544)) [µM]	MIC (E. coli R3 (ATCC 11775)) [µM]	MBC (E. coli R3 (ATCC 11775)) [µM]	MBC (E. coli R4 (ATCC 39543)) [µM]	MIC (E. coli R4 (ATCC 39543)) [µM]	MIC [1] [µM]	MBC [1] [µM]	MIC [2] [µM]	MBC [2] [µM]	MIC (E. cloacae (ATCC 49141)) [µM]	MBC (E. cloacae (ATCC 49141)) [µM]	MBC (S. aureus (ATCC 23235)) [µM]	MIC (S. aureus (ATCC 23235)) [µM]
COc1ccc(CN(C(C)=O)C(C(=O)NCc2ccccc2)c2ccc(O)c(O)c2)cc1 (stereo not drawn) [Compound 5j, N-benzyl-2-(3,4-dihydroxyphenyl)-2-(N-(4-methoxybenzyl)acetamido)acetamide]	0.82 (≈ 0.356 µg/mL)	0.26 (≈ 0.113 µg/mL)	1.19 (≈ 0.517 µg/mL)	0.74 (≈ 0.322 µg/mL)	1.08 (≈ 0.469 µg/mL)	1.28 (≈ 0.556 µg/mL)	1.47 (≈ 0.639 µg/mL)	1.22 (≈ 0.53 µg/mL)	0.8 (≈ 0.348 µg/mL)	0.85 (≈ 0.369 µg/mL)	0.77 (≈ 0.335 µg/mL)	0.82 (≈ 0.356 µg/mL)	0.76 (≈ 0.33 µg/mL)	0.81 (≈ 0.352 µg/mL)	0.74 (≈ 0.322 µg/mL)	0.78 (≈ 0.339 µg/mL)
COc1ccc(CNC(=O)C(c2ccc(O)c(O)c2)N(Cc2ccc(OC)cc2)C(C)=O)cc1 (stereo not drawn) [Compound 5k, 2-(3,4-dihydroxyphenyl)-N-(4-methoxybenzyl)-2-(N-(4-methoxybenzyl)acetamido)-acetamide]	0.79 (≈ 0.367 µg/mL)	0.58 (≈ 0.269 µg/mL)	1.27 (≈ 0.59 µg/mL)	1.27 (≈ 0.59 µg/mL)	2.13 (≈ 0.989 µg/mL)	2.58 (≈ 1.2 µg/mL)	2.82 (≈ 1.31 µg/mL)	2.55 (≈ 1.18 µg/mL)	0.93 (≈ 0.432 µg/mL)	1 (≈ 0.465 µg/mL)	1.15 (≈ 0.534 µg/mL)	1.21 (≈ 0.562 µg/mL)	1.14 (≈ 0.53 µg/mL)	1.26 (≈ 0.585 µg/mL)	1.18 (≈ 0.548 µg/mL)	1.18 (≈ 0.548 µg/mL)
CC(=O)N(C1CCCCC1)C(C(=O)NCc1ccccc1)c1ccc(O)c(O)c1 (stereo not drawn) [Compound 5m, N-benzyl-2-(N-cyclohexylacetamido)-2-(3,4-dihydroxyphenyl)acetamide]	0.85 (≈ 0.337 µg/mL)	0.35 (≈ 0.139 µg/mL)	1.31 (≈ 0.519 µg/mL)	0.94 (≈ 0.373 µg/mL)	1.24 (≈ 0.492 µg/mL)	1.38 (≈ 0.547 µg/mL)	1.53 (≈ 0.607 µg/mL)	0.59 (≈ 0.234 µg/mL)	0.79 (≈ 0.313 µg/mL)	0.88 (≈ 0.349 µg/mL)	0.8 (≈ 0.317 µg/mL)	0.91 (≈ 0.361 µg/mL)	0.81 (≈ 0.321 µg/mL)	0.89 (≈ 0.353 µg/mL)	0.78 (≈ 0.309 µg/mL)	0.75 (≈ 0.297 µg/mL)
COc1ccc(CN(C(C)=O)C(C(=O)NCc2ccc(F)cc2)c2ccc(O)c(O)c2)cc1 (stereo not drawn) [Compound 5l, 2-(3,4-dihydroxyphenyl)-N-(4-fluorobenzyl)-2-(N-(4-methoxybenzyl)acetamido)-acetamide]	0.77 (≈ 0.348 µg/mL)	0.64 (≈ 0.29 µg/mL)	1.21 (≈ 0.548 µg/mL)	1.17 (≈ 0.529 µg/mL)	1.64 (≈ 0.742 µg/mL)	2.62 (≈ 1.19 µg/mL)	2.76 (≈ 1.25 µg/mL)	2.61 (≈ 1.18 µg/mL)	1 (≈ 0.452 µg/mL)	1.03 (≈ 0.466 µg/mL)	1.23 (≈ 0.557 µg/mL)	1.26 (≈ 0.57 µg/mL)	1.23 (≈ 0.557 µg/mL)	1.27 (≈ 0.575 µg/mL)	1.28 (≈ 0.579 µg/mL)	1.27 (≈ 0.575 µg/mL)
COc1ccc(CNC(=O)C(c2ccc(O)c(O)c2)N(C(=O)Cc2ccccc2)C2CCCCC2)cc1 (stereo not drawn) [Compound 5e]	0.87 (≈ 0.437 µg/mL)	0.3 (≈ 0.151 µg/mL)	0.89 (≈ 0.447 µg/mL)	0.71 (≈ 0.357 µg/mL)	0.89 (≈ 0.447 µg/mL)	1.15 (≈ 0.578 µg/mL)	1.29 (≈ 0.648 µg/mL)	1.37 (≈ 0.689 µg/mL)	0.72 (≈ 0.362 µg/mL)	0.75 (≈ 0.377 µg/mL)	0.67 (≈ 0.337 µg/mL)	0.69 (≈ 0.347 µg/mL)	0.64 (≈ 0.322 µg/mL)	0.7 (≈ 0.352 µg/mL)	0.69 (≈ 0.347 µg/mL)	0.67 (≈ 0.337 µg/mL)
COc1ccc(CNC(=O)C(c2ccc(O)c(O)c2)N(C(C)=O)C2CCCCC2)cc1 (stereo not drawn) [Compound 5n, 2-(N-cyclohexylacetamido)-2-(3,4-dihydroxyphenyl)-N-(4-methoxybenzyl)acetamide]	0.77 (≈ 0.328 µg/mL)	0.39 (≈ 0.166 µg/mL)	1.3 (≈ 0.554 µg/mL)	0.76 (≈ 0.324 µg/mL)	1.1 (≈ 0.469 µg/mL)	1.3 (≈ 0.554 µg/mL)	1.44 (≈ 0.614 µg/mL)	1.48 (≈ 0.631 µg/mL)	0.75 (≈ 0.32 µg/mL)	0.79 (≈ 0.337 µg/mL)	0.78 (≈ 0.333 µg/mL)	0.82 (≈ 0.35 µg/mL)	0.8 (≈ 0.341 µg/mL)	0.8 (≈ 0.341 µg/mL)	0.83 (≈ 0.354 µg/mL)	0.72 (≈ 0.307 µg/mL)
